Data: patent US12447151B2, “Alkyne derivative, preparation method for same, and uses thereof” (ZHEJIANG HISUN PHARMACEUTICAL CO., LTD., priority 2019, dated 2025)

Legend:
[1] = Oral pharmacokinetics in ICR mice; format: in vivo; details: male, mouse, plasma, Oral (5 mg/kg); for AUC(0-inf): read-out: Area under the curve AUC0-∞; for bioavailability: read-out: Bioavailability F; for Cmax: read-out: Plasma concentration Cmax
Procedure: (§1) Using ICR mice as the test animals, the mice were intragastrically administrated with the compound of the present invention. LC/MS/MS method was used to determine the drug concentration in the plasma at different times to study the pharmacokinetic characteristics of the compound of the present invention in mice.
(§2) An appropriate amount of the compound to be tested was weighed, and 0.5% sodium carboxymethylcellulose (containing 0.05% Tween80) was added. The mixture was vortexed, and sonicated so that the solid was ultrasonically dispersed uniformly to obtain a suspension; 100 μL×2 of the preparation were aspirated, and placed in 1.5-mL EP tubes, stored at 2 to 8° C. The concentration of the preparation was 0.5 mg/mL.
Twenty-seven healthy adult ICR male mice were fasted overnight and then intragastrically administered (dosage of administration was 5 mg/kg), and fed 4 hours after administration.
At 0.083 hours, 0.25 hours, 0.5 hours, 1 hour, 2 hours, 4 hours, 8 hours, 12 hours, and 24 hours after administration, 80 μL of blood was collected from the orbital vein. About 0.08 mL of blood was collected, and placed in EDTA-K2 anticoagulation tube. […] The collected plasma was stored at −40 to −20° C. before analysis. The […] method was used to determine the content of the test compound in the plasma of ICR mice after intragastric administration of different compounds.

[2] = Metabolic stability in liver microsomes; format: in vitro ADME; details: human liver microsomes 0.5 mg/mL, 1 μM compound, NADPH 1 mM; read-out: half-life period/(T1/2, min)
Procedure: The test compound was co-incubated with human liver microsomes, and coenzyme NADPH was added to initiate the reaction. At 0, 5, 15, 30 and 60 minutes, 20 μL of incubation solution was taken out and transferred to 200 μL of acetonitrile containing internal standard to stop the reaction. After protein precipitation, centrifugation was performed at 3,700 rpm for 10 minutes and the supernatant was taken. The supernatant was diluted 1:1 with water and analyzed by LC-MS/MS method. According to the elimination half-life of the test compound in the incubation system, the in vitro intrinsic clearance rate was calculated. Midazolam was used as the internal reference compound and incubated for two aliquots in parallel.
The ratio of peak area of the analyte/internal standard (Aanalyte/AIS) was obtained by the instrument. The remaining percentage (% Control) was calculated from the ratio of Aanalyte/AIS in the non-zero time point sample to the zero time point sample. Ln (% Control) versus incubation time was plotted and a linear fit was performed. The clearance constant (k, min^−1), the clearance half-life (T1/2, min) and the in vitro intrinsic clearance rate (CLint, mL·min^−1·mg^−1 proteins) of the test compound were calculated by the following equations.
Cprotein(mg·mL^−1) refers to the concentration of microsomal protein in the incubation system.

[3] = Oral pharmacokinetics in SD rats; format: in vivo; details: male, rat, plasma, Oral (5 mg/kg); for AUC(0-inf): read-out: Area under the curve AUC0-∞; for bioavailability: read-out: Bioavailability F; for half-life: read-out: Half-life period T1/2 (converted); for Cmax: read-out: Plasma concentration Cmax
Procedure: as §1, with “SD rats” for “ICR mice”, “as” for “as the”, “rats” for “mice”, “rats.” for “mice.”
as §2, with “obtain a suspension. 100 μL×2” for “obtain a suspension; 100 μL×2”, “of the filtered preparation were” for “of the preparation were”, “at […].” for “at 2 to 8° C.”
Nine healthy adult male SD rats were fasted overnight and then intragastrically administered (dosage of administration was 5 mg/kg), and fed 4 hours after administration.
About 0.2 mL of blood was collected from the jugular vein at 0.083 hours, 0.25 hours, 0.5 hours, 1 hour, 2 hours, 4 hours, 8 hours, 12 hours, and 24 hours after administration, and heparin sodium was used for anticoagulation. The collected blood samples were placed on ice and centrifuged to separate the plasma (centrifugation conditions: 1500 g, 10 minutes). The collected plasma was stored at −40 to −20° C. before analysis. The LC-MS/MS method was used to determine the content of the test compound in the plasma of SD rats after intragastric administration of different compounds.

recombinant human PI3Kγ = recombinant human PI3Kγ (Homo sapiens (Human), UniProt P48736); test: Inhibitory activity on PI3K kinase (ADP-Glo Kinase Assay); format: biochemical; details: for IC50: ADP-Glo, ATP 10 μM
Source text: The following method is used to determine the degree of inhibition of recombinant human PI3Kα, PI3Kβ, PI3Kγ and PI3Kδ kinase activity by the compounds of the present invention under in vitro conditions. Promega's ADP-Glo Kinase Assay Kit (Cat. No. V9102) was used in this method. The above kit was a luminescence kinase detection kit, which was used to detect the ADP content produced by the kinase reaction. The ADP content was positively correlated with the kinase activity. By measuring the ADP content, the inhibition of the compound on the activity of PI3Kα, PI3Kβ, PI3Kγ and PI3Kδ kinases was reflected. For detailed experimental operations, please refer to the kit instructions. Recombinant human PI3Kα, PI3Kγ, and PI3Kδ were purchased from Invitrogen, and PI3Kβ was purchased from Promega (category numbers were PI3Kα: PV4788; PI3Kβ: V1751; PI3Kγ: PV4786 and PI3Kδ: PV6451 separately).

recombinant human PI3Kβ = recombinant human PI3Kβ (Homo sapiens (Human), UniProt P42338); test: as above
Source text: (§3) The following method is used to determine the degree of inhibition of recombinant human PI3Kα, PI3Kβ, PI3Kγ and PI3Kδ kinase activity by the compounds of the present invention under in vitro conditions. Promega's ADP-Glo Kinase Assay Kit (Cat. No. V9102) was used in this method. The above kit was a luminescence kinase detection kit, which was used to detect the ADP content produced by the kinase reaction. The ADP content was positively correlated with the kinase activity. By measuring the ADP content, the inhibition of the compound on the activity of PI3Kα, PI3Kβ, PI3Kγ and PI3Kδ kinases was reflected. […] Recombinant human PI3Kα, PI3Kγ, and PI3Kδ were purchased from Invitrogen, and PI3Kβ was purchased from Promega (category numbers were PI3Kα: PV4788; PI3Kβ: V1751; PI3Kγ: PV4786 and PI3Kδ: PV6451 separately).

recombinant human PI3Kα = recombinant human PI3Kα (Homo sapiens (Human), UniProt P42336); test: as above
Source text: as §3

recombinant human PI3Kδ = recombinant human PI3Kδ (Homo sapiens (Human), UniProt O00329); test: as above
Chain of recombinant human PI3Kδ (O00329 whole entry): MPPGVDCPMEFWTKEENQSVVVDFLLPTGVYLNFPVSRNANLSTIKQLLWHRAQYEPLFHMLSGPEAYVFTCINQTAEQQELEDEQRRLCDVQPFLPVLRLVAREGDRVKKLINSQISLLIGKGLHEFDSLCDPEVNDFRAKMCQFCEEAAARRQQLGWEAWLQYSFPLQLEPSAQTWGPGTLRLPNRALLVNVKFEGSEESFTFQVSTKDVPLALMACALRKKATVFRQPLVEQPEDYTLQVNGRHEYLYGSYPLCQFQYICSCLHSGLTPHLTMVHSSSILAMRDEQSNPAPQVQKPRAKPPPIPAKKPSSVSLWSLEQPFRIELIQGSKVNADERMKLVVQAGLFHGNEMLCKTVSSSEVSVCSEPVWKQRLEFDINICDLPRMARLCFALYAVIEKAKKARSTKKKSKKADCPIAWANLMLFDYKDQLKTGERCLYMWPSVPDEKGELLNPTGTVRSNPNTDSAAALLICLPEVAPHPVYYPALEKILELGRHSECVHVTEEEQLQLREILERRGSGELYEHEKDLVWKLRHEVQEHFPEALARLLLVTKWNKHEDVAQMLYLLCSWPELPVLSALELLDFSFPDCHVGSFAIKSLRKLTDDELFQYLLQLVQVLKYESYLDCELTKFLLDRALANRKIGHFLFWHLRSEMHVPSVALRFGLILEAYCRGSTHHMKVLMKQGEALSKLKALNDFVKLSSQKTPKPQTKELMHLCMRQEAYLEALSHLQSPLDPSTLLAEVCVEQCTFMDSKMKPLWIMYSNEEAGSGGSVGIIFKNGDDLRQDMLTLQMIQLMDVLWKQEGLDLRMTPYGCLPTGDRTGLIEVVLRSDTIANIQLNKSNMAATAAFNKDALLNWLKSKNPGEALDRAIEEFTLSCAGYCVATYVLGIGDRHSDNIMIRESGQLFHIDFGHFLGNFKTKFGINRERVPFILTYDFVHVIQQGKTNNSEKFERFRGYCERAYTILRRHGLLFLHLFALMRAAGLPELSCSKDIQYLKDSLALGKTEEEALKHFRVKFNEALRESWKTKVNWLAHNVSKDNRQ
Chain of recombinant human PI3Kδ (P27986 whole entry partner): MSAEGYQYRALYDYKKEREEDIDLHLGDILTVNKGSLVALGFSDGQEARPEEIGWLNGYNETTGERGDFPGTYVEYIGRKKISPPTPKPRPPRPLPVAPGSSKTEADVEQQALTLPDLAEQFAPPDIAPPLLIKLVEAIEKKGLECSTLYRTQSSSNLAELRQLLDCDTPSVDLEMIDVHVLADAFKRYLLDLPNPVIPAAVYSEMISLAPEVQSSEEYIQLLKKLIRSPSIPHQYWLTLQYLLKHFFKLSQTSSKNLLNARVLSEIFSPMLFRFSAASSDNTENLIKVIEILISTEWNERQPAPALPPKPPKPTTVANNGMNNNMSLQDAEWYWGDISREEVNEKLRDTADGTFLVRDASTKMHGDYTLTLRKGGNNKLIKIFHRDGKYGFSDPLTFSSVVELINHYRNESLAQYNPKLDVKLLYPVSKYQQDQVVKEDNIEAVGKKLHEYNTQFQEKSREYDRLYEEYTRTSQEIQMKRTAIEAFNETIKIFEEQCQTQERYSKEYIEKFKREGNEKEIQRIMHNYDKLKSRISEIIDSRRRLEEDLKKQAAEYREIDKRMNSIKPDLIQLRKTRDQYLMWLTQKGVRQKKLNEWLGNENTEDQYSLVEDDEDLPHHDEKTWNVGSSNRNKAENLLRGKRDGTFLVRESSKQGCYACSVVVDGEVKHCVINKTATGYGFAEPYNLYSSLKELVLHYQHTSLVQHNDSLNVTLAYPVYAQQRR
Source text: as §3

Chain of recombinant human PI3Kγ (P48736 whole entry): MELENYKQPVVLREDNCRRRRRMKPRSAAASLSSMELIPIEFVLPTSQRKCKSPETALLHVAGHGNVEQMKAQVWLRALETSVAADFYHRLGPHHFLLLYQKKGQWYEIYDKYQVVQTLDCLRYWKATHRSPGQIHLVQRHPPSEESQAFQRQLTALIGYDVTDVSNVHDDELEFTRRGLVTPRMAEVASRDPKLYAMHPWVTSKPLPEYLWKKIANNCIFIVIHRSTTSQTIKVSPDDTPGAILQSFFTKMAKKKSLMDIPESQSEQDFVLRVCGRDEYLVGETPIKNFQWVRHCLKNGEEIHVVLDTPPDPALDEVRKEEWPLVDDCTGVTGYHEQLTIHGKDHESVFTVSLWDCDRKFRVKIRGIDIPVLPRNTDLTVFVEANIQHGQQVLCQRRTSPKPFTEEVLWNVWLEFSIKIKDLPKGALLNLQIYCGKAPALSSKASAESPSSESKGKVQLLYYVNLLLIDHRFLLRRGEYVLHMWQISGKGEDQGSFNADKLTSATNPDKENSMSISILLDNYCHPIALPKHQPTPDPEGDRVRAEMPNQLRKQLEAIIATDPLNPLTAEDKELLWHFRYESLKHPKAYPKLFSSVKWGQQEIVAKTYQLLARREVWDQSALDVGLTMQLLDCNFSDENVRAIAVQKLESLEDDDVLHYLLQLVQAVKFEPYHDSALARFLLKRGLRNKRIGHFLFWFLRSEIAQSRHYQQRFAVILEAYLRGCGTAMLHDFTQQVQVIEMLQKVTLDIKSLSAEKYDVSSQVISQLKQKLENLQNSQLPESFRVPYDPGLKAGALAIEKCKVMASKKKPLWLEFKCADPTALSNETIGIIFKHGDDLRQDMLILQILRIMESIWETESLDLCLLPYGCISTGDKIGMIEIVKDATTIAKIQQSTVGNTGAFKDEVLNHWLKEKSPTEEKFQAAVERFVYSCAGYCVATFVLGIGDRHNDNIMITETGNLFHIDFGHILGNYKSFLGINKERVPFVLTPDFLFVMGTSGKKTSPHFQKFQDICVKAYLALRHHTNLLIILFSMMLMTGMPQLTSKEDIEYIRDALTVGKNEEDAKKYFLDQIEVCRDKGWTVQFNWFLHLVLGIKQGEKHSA
Chain of recombinant human PI3Kα (P42336 whole entry): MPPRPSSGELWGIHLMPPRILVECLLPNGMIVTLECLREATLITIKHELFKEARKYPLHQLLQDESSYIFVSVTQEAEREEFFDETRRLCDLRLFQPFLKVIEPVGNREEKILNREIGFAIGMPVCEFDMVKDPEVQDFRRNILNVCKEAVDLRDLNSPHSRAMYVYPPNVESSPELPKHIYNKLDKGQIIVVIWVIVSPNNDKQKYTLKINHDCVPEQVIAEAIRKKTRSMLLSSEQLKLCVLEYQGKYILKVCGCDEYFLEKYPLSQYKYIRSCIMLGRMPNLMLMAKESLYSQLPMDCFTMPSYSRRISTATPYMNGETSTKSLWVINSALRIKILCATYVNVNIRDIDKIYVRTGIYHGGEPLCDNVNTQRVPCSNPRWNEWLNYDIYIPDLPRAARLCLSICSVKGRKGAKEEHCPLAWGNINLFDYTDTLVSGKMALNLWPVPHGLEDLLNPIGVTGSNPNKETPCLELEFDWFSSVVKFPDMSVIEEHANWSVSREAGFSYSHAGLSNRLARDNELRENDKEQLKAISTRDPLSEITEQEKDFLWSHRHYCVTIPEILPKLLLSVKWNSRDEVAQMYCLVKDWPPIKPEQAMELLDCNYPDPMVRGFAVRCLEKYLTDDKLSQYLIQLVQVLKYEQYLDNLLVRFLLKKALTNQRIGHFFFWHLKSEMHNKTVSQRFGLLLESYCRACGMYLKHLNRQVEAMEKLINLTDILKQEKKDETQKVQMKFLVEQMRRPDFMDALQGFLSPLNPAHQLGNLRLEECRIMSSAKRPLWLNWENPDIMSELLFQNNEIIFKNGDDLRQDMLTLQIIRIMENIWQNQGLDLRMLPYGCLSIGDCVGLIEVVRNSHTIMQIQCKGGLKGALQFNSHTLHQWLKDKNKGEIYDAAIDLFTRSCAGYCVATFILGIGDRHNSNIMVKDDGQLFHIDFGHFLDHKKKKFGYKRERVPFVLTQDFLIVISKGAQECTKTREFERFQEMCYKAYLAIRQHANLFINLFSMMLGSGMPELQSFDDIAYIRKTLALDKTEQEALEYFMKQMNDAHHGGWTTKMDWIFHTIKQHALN
Chain of recombinant human PI3Kα (P27986 whole entry partner): as the sequence (P27986 whole entry partner) above
Chain of recombinant human PI3Kβ (P42338 whole entry): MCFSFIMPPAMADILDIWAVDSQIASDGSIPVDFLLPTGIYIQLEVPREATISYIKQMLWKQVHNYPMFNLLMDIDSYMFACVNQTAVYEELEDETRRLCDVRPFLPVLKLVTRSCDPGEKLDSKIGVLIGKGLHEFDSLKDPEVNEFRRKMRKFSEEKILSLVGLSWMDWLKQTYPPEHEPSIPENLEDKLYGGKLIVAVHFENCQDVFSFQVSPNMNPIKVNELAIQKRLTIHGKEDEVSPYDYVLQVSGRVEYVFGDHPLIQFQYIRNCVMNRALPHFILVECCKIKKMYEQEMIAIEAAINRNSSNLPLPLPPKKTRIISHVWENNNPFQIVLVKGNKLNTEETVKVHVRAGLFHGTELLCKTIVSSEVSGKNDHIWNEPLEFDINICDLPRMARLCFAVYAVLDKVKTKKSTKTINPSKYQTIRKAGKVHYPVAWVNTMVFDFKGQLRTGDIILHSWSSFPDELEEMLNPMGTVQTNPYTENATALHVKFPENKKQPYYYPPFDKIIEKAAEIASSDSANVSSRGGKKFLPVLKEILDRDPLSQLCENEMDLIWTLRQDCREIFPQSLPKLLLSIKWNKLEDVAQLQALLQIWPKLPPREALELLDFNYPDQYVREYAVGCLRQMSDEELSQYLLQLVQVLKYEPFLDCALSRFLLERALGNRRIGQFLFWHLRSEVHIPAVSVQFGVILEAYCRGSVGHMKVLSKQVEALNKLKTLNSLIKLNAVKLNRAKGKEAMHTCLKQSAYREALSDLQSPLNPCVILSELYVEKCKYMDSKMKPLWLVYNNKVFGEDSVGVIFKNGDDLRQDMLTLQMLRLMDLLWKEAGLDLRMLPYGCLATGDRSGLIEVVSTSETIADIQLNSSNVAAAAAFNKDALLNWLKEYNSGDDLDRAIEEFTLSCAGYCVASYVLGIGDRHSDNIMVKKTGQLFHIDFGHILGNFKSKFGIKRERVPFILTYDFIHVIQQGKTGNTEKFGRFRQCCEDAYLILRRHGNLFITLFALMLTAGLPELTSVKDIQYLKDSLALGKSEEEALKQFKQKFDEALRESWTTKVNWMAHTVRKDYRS
Chain of recombinant human PI3Kβ (P27986 whole entry partner): as the sequence (P27986 whole entry partner) above

Structure (SMILES) | AUC(0-inf) [1] [ng·h/mL] | bioavailability [1] [%] | Cmax [1] [ng/mL] | half-life at 1 μM [2] [min] | AUC(0-inf) [3] [ng·h/mL] | bioavailability [3] [%] | half-life [3] [h] | Cmax [3] [ng/mL] | IC50 (recombinant human PI3Kγ) [nM] | IC50 (recombinant human PI3Kβ) [nM] | IC50 (recombinant human PI3Kα) [nM] | IC50 (recombinant human PI3Kδ) [nM] | IC50 (PI3Kα)/IC50(PI3Kγ) (recombinant human PI3Kγ; kinase selectivity for PI3Kγ over PI3Kα) | IC50 (PI3Kβ)/IC50(PI3Kγ) (recombinant human PI3Kγ; kinase selectivity for PI3Kγ over PI3Kβ) | IC50 (PI3Kδ)/IC50(PI3Kγ) (recombinant human PI3Kγ; kinase selectivity for PI3Kγ over PI3Kδ) | half-life ([1]; read-out: Half-life period T½ (converted)) [h]
C[C@H](NC(=O)c1c(N)nn2cccnc12)c1cc2cccc(C#Cc3cnn(C)c3)c2c(=O)n1-c1ccccc1 [IPI-549, reference compound] | 2660 | 20 | 484 | 195 | 1950 | 10 | 2.4 | 358 |  |  |  |  |  |  |  | 
C[C@H](NC(=O)c1c(N)nn2cccnc12)c1nc2cccc(C#Cc3cnn(C)c3)c2c(=O)n1-c1ccccc1 [Compound 21 in WO2015051244A1, reference compound] |  |  |  | 113 |  |  |  |  |  |  |  |  |  |  |  | 
C[C@H](NC(=O)c1c(N)nn2cccnc12)c1nc2ccc(F)c(C#Cc3cnn(C4CC4)c3)c2c(=O)n1-c1ccccc1 [Example 3, (S)-2-amino-N-(1-(5-((1-cyclopropyl-1H-pyrazol-4-yl)ethynyl)-6-fluoro-4-oxo-3-phenyl-3,4-dihydroquinazolin-2-yl)ethyl)pyrazolo[1,5-a]pyrimidine-3-carboxamide] |  |  |  | 574 |  |  |  |  | 0.7 | 552 | 143 | 195 |  |  |  | 
C[C@H](NC(=O)c1c(N)nn2cccnc12)c1cc2cccc(C#Cc3cnn(C4CC4)c3)c2c(=O)n1-c1ccccc1 [Example 1, (S)-2-amino-N-(1-(8-((1-cyclopropyl-1H-pyrazol-4-yl)ethynyl)-1-oxo-2-phenyl-1,2-dihydroisoquinolin-3-yl)ethyl)pyrazolo[1,5-a]pyrimidine-3-carboxamide] | 7470 | 33 | 898 | 11700 | 3940 | 27 | 5.1 | 587 | 0.46 | 237 | 101 | 461 | 220 | 515 | 1002 | 3.1
